Measurements as given in a melting point compilation (Tetko et al.).

Compound | melting point [°C]
Cc1cc2c(cc1Br)NCC(C)O2 (stereo not given) | 93 to 95
CC(=O)c1c[nH]c(C(=O)N2CCCC(CO)C2)c1 (stereo not given) | 146 to 148
O=C(O)c1ccc(NC(=O)c2ccc(Br)cc2)cc1 | 327 to 329
O=C(O)c1cc(Cl)ccn1 | 170 to 174
CCc1[nH]nc(C(=O)O)c1[N+](=O)[O-] | 149 to 151
O=C(O)CCc1nc(-c2ccoc2)no1 | 143 to 145
O=C1CNC2(CCCCC2)C(=O)N1 | 184 to 186
CS(=O)(=O)c1ccc2nnn(O)c2c1 | 192 to 194
O=C(CCl)N(Cc1cccs1)C1CCS(=O)(=O)C1 (stereo not given) | < 17
CC1Oc2ncccc2NC1=O (stereo not given) | 225 to 227
O=C(O)C1COc2ccccc21 (stereo not given) | 101 to 103
Cc1cccc(C(N)C(=O)O)c1 (stereo not given) | 229 to 231
O=C1c2ccccc2S(=O)(=O)N1CCBr | 94 to 96
O=C(O)c1ccc(-c2ccc3c(c2)OCCO3)s1 | 204 to 206
Nc1cc(O)cc(F)c1 | 159 to 161
CC1Nc2ncccc2NC1=O (stereo not given) | 272 to 274
CC(=O)NC12CC3CC(C1)CC(C(=O)O)(C3)C2 | 258 to 260
Cc1ccc(C)n1-c1ccc(N)cc1 | 93 to 95
CCOc1ccc(CC(CN)C(N)=O)cc1 (stereo not given) | 116 to 118
O=C(Nc1ccc(OC(F)(F)F)cc1)OCC(F)(F)F | 64 to 66
O=c1[nH]cnc2cc(N3CCOCC3)c([N+](=O)[O-])cc12 | 309 to 311
Cc1ccc(C(=O)O)c(Br)c1 | 143 to 147
O=C(O)C(O)CCc1ccccc1 (stereo not given) | 114 to 117
CCC(N)C(=O)NC(CC)c1ccc(C)cc1 (stereo not given) | 59 to 61
NC(=O)C1(O)Cc2ccccc2C1 | 186 to 188

Compound | melting point [°C]
O=C(O)c1ccn(Cc2ccccc2)c1 | 150 to 152
CC(=CC(=O)O)c1ccccc1Cl | 75 to 77
CCOC(=O)C(=O)CC(=O)c1ccc2ccccc2c1 | 51 to 53
CCCCc1ccc(CC(=O)O)cc1 | 78 to 80
CC(O)c1ccc(-n2cncn2)cc1 (stereo not given) | 90 to 92
NNC(=O)c1cc(-c2ccncc2)nc2ccccc12 | 226 to 228
Cc1cc(F)c(S(N)(=O)=O)cc1[N+](=O)[O-] | 159 to 161
Cc1cc(C)c(S(=O)(=O)Cl)cc1C(=O)O | 189 to 191
NC(=O)c1c[nH]nc1-c1ccccc1 | 187 to 189
Cc1cc(N)ccc1N1CCSCC1 | 67 to 69
COc1ccc(NC(=O)OC(C)(C)C)c(N)c1 | 116 to 118
Cc1ccc(OCC(=O)O)c(Br)c1 | 130 to 132
O=C(O)c1cn(-c2cccc(Cl)c2F)nn1 | 139 to 141
O=Cc1cn(-c2ccccc2)nc1-c1ccc(Br)cc1 | 141 to 143
O=C(O)CN1CCOc2ccc(Cl)cc21 | 156 to 158
Cc1cn2c(C=O)c(C)nc2s1 | 153 to 155
Cc1cc(Br)cc([N+](=O)[O-])c1O | 89 to 91
COC(=O)c1ccc2[nH]cc(C3CCNCC3)c2c1 | 169 to 171
CS(=O)(=O)N1CCC(NC(=O)N2CCC(C(=O)O)CC2)CC1 | 197 to 199
Cc1cc(C)c(S(=O)(=O)N2CCC(C(=O)O)CC2)c(C)c1 | 181 to 183
Fc1ccc(CNc2nnc(S)s2)cc1 | 168 to 170
Cc1ccccc1-n1ncc(C(=O)O)c1N | 159 to 161
NC(=O)CCNC(=O)OCc1ccccc1 | 164 to 166
Cc1cc(N)c2cccnc2c1C | 124 to 126
CC(C)(C)c1ccc(CCCCC(=O)O)cc1 | 71 to 73

Compound | melting point [°C]
CC1(C)C2CCC1(CS(=O)(=O)F)C(=O)C2 (stereo not given) | 79 to 81
CC(C)=CC(=O)NCc1ccc(C(=O)O)cc1 | 187 to 189
CCOC(=O)c1c(NC(=O)CCl)sc(C(=O)OC(C)(C)C)c1C | 168 to 170
NCc1ccc(N2CCNC(=O)C2)cc1 | 189 to 191
Cc1ccnc(Oc2ccc(N)cc2)n1 | 119 to 121
O=C(O)c1cnco1 | 226 to 230
CC(=O)NC1CCCNC1 (stereo not given) | 65 to 67
CCCn1nc(C)c(C(=O)O)c1C | 113 to 115
Cc1cc(Br)cc(Cl)c1C(=O)O | 154 to 156
CC(N)(C(N)=O)c1cccc(C(F)(F)F)c1 (stereo not given) | 84 to 86
CN(C)C(=O)c1cccc(C(=O)O)c1 | 134 to 136
O=Cc1c(-c2ccccc2)nc2sccn12 | 128 to 130
COc1ccc(-c2csc(CC#N)n2)cc1 | 70 to 72
O=C(CSc1nnnn1-c1ccccc1)c1ccc[nH]1 | 182 to 184
Nc1nc(-c2cccc(C(F)(F)F)c2)n[nH]1 | 221 to 223
COC(=O)c1ccc(C(F)(F)F)cc1N | 58 to 60
Cn1c(C=O)nc2ccccc21 | 119 to 122
O=C(O)C(Cc1ccsc1)C(=O)O | 108 to 110
CC1CCCC1(N)C(N)=O (stereo not given) | 64 to 66
Cc1cc(Cl)c([N+](=O)[O-])cc1N | 118 to 120
Cc1nc(-c2ccco2)ccc1C(=O)O | 174 to 176
CC(C)(C)C1CCc2nc(N)sc2C1 (stereo not given) | 131 to 133
CC(=O)c1csc(C(=O)CCl)c1 | 124 to 126
O=C(O)c1oc2ccccc2c1CSC1=NCCS1 | 190 to 192
NNC(=O)c1cc2c(s1)CCCCC2 | 253 to 255

Compound | melting point [°C]
CCN(CC)C(=O)Nc1ccc(C(C)=O)cc1 | 113 to 115
CCC1(CO)CCNCC1 | 59 to 61
CC(Oc1ccc(C(C)(C)C)cc1)C(=O)O (stereo not given) | 93 to 95
CC1CCC2(CC1)NC(=O)N(CC(=O)O)C2=O (stereo not given) | 223 to 225
CC(=O)c1ccc(OCCCC(=O)O)cc1 | 135 to 139
O=C(O)C1CCCN(C2=NS(=O)(=O)c3ccccc32)C1 (stereo not given) | 205 to 207
Nc1cc(C(F)(F)F)ccc1O | 115 to 117
Cc1nnc(S)n1CC(=O)N(C)C | 260 to 262
O=C(O)C1CCCN1C(=O)c1cncn1-c1ccccc1 (stereo not given) | 133 to 135
CCOC(=O)C(O)(CC#N)c1nccn1C (stereo not given) | 117 to 119
O=S(=O)(Cl)CCS(=O)(=O)c1ccccc1 | 172 to 174
CC(C(N)=NO)n1ccnc1 (stereo not given) | 151 to 153
CN1CCCN(C(=O)c2ccccc2N)CC1 | 80 to 82
Nc1cccnc1-n1cccn1 | 65 to 67
Cc1ccc(C(=O)COc2ccc(C=O)cc2)cc1C | 65 to 67
CN1CC(=O)N(Cc2ccc(C(N)=O)cc2N)C1=O | 187 to 189
ClCc1nc(-c2nc[nH]n2)no1 | 187 to 189
O=C(O)c1cnn(-c2ccccc2)c1 | 175 to 182
Cc1nscc1C(=O)O | 219 to 221
Cc1cccc(S(=O)(=O)Cl)c1C#N | 74 to 76
c1c[nH]c(C2CCNCC2)n1 | 176 to 178
CN(C)/C=C(/C#N)C(N)=O | 166 to 168
O=C(O)c1cc(Br)c2occc2c1 | 239 to 241
ClCc1ncc(-c2ccc(Cl)cc2)o1 | 53 to 57
Cc1nc2n(c1CN1CCNCC1)CCCC2 | 111 to 113

Compound | melting point [°C]
CC1COc2ccccc2C1O (stereo not given) | 95 to 97
Cc1cc(Cl)nc(-c2cccc([N+](=O)[O-])c2)n1 | 147 to 149
Cn1ccnc1SCc1cccc(C(=O)O)c1 | 157 to 159
CCC(C)C(C)S(N)(=O)=O (stereo not given) | 44 to 46
O=C(NCCCN1CCCC1)OCC(F)(F)F | 36 to 38
O=C(O)CCc1nccs1 | 123 to 125
CC1Cc2ccccc2N1C(=O)C1CCCCC1C(=O)O (stereo not given) | 123 to 125
COc1ccccc1C(N)c1nccn1C (stereo not given) | 78 to 80
COc1ccc(-c2nc(CO)no2)cc1 | 141 to 143
CN(C)c1nc(=N)cc[nH]1 | 149 to 151
Cc1ccc(NC(=O)c2c(F)cccc2Cl)c(C(=O)O)c1 | 249 to 251
CC(C)(C)OC(=O)NCc1nnc(S)o1 | 106 to 108
N#CC1COCCN1 (stereo not given) | 76 to 78
CN(CC(=O)Nc1c(Cl)cccc1Cl)C(=O)CCl | 188 to 190
O=C(O)C1CC1c1ccco1 (stereo not given) | 51 to 53
CN1CCN(c2ccc(CN)cn2)CC1 | 60 to 62
Cn1nnnc1S(C)(=O)=O | 64 to 66
Cn1cnc2cc(C(=O)O)ccc21 | 313 to 315
Cc1cc(C)n(-c2ccc(C(=O)O)cn2)n1 | 241 to 243
O=C(O)Cc1ccc(-n2cccn2)cc1 | 130 to 132
CC(=O)c1cn(-c2ccccc2)nn1 | 102 to 104
CCNS(=O)(=O)c1ccc(I)cc1 | 112 to 114
c1nc(N2CCNCC2)c2sccc2n1 | 98 to 100
Cc1cc(O)cc(=O)n1C1CC1 | 264 to 266
Brc1nn2cc(-c3ccccc3)nc2s1 | 186 to 188

Compound | melting point [°C]
O=C(Nc1cccc(Br)n1)c1ccccc1 | 84 to 86
Cc1c(C(=O)O)cccc1S(N)(=O)=O | 218 to 220
CC(CCOc1ccccc1)C(=O)O (stereo not given) | 76 to 78
COC(=O)c1cc(F)cc(Br)c1N | 36 to 38
CC1CCN(Cc2ccccc2)c2ccccc2N1 (stereo not given) | 68 to 70
O=C(O)c1cccc(N2CCOC2=O)c1 | 214 to 216
CCN(CC)C(=O)N1CCC(C(=O)O)CC1 | 96 to 98
O=C(O)C1CCCCC1c1nc2cc(Cl)ccc2[nH]1 (stereo not given) | 199 to 201
Cn1cc(C#N)c(=O)n(C)c1=O | 154 to 156
Nc1ccnn1CC1CCCCC1 | 59 to 61
NC(=O)N1CCCC1 | 222 to 224
Cc1cc(C(=O)O)c(C)n1-c1ccc(C#N)cc1 | 249 to 251
COc1cc([N+](=O)[O-])ccc1NC(=O)CCCl | 144 to 146
Nc1c(F)cccc1-n1cncn1 | 103 to 105
Nc1ccccc1Cc1ccccc1 | 55 to 57
NCc1ccccc1CN1CCC(O)CC1 | 83 to 85
NNC(=O)c1ccc(O)c(Cl)c1 | 280 to 282
Oc1ccc(-c2noc(-c3cccc(Br)c3)n2)cc1 | 222 to 224
Cc1nc(COc2ccccc2/C=C/C(=O)O)cs1 | 143 to 145
NS(=O)(=O)c1cnn(-c2cccc(C(F)(F)F)c2)c1 | 162 to 164
